According to EP2140864A2 (H. Lundbeck A/S, priority 2001, dated 2002):
Like-named read-outs stand apart in the source and are kept apart here.

Assays:
[1] = biological target: T1, human 5HT1D (Homo sapiens, UniProt P28221); experiment: Radioligand binding, 5HT1D receptor ([3H]-serotonin)
T1 construct: expressed in transfected cells
Experimental: (§1) Human 5HT1B, 5HT1D, 5HT1E, 5HT1F, and 5HT7 Receptors: The cell lysates of LM(tk-) clonal cell line stably transfected with the genes encoding each of these 5HT receptor-subtypes were prepared as described above. Cell membranes were suspended in 50mM Tris-HCl buffer (pH 7.4 at 37°C) containing 10 mM MgCl2, 0.2 mM EDTA, 10 µM pargyline, and 0.1% ascorbate. […] Nonspecific binding was determined in the presence of 10 µM serotonin. The bound radioligand was separated by filtration through GF/B filters using a cell harvester.
(§2) Binding data were analyzed using nonlinear regression and statistical techniques available in the GraphPAD Prism package (San Diego, CA). Enzymatic assay data were derived from a standard curve of reference compound data.

[2] = biological target: T2, human 5HT1A receptor (Homo sapiens, UniProt P08908); experiment: Radioligand binding, 5-HT1A receptor (3H-8-OH-DPAT)
T2 construct: expressed in transfected cells; host or cells: COS-7 cells, transient (pCEXV-3 vector)
T2 sequence (P08908 1-422): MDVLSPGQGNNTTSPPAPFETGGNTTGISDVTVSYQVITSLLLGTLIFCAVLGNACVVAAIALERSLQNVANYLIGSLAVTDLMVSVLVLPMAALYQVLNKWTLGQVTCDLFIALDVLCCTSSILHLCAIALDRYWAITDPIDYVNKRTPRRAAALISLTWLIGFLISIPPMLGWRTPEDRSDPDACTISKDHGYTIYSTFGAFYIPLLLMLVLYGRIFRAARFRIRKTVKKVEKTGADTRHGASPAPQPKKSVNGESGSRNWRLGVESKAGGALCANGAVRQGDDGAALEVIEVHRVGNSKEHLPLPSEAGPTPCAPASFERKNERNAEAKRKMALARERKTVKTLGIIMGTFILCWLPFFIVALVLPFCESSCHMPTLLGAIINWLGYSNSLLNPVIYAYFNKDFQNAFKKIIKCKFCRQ
Experimental: 5-HT1A Receptor: The cDNA corresponding to the 5-HT1A receptor open reading frames and variable non-coding 5'-and 3'-regions, was cloned into the eukaryotic expression vector pCEXV-3. These constructs were transfected transiently into COS-7 cells by the DEAE-dextran method (Cullen, 1987), and harvested after 72 hours. Radioligand binding assays were performed as described above for the 5-HT2A receptor, except that ^3H-8-OH-DPAT was used as the radioligand and nonspecific binding was determined by the addition of 10 µM mianserin.
as §2

[3] = biological target: T3, human 5HT1F (Homo sapiens, UniProt P30939); experiment: Radioligand binding, 5HT1F receptor ([3H]-serotonin)
T3 construct: expressed in transfected cells
T3 sequence (P30939 1-366): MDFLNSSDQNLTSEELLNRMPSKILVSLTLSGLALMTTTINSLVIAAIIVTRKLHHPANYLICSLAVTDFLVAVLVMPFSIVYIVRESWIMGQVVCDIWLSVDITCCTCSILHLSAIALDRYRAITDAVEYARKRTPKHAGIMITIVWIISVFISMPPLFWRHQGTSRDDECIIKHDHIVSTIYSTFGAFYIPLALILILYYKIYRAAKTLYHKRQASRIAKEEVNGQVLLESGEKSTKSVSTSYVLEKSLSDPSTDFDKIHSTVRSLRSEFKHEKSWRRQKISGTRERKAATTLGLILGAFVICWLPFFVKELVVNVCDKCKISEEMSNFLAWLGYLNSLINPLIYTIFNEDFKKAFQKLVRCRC
Experimental: as §1, §2

[4] = biological target: T4, human α1A adrenoceptor (Homo sapiens, UniProt P35348); experiment: Radioligand binding, α1A adrenergic receptor
T4 construct: expressed in transfected cells
T4 sequence (P35348 1-466): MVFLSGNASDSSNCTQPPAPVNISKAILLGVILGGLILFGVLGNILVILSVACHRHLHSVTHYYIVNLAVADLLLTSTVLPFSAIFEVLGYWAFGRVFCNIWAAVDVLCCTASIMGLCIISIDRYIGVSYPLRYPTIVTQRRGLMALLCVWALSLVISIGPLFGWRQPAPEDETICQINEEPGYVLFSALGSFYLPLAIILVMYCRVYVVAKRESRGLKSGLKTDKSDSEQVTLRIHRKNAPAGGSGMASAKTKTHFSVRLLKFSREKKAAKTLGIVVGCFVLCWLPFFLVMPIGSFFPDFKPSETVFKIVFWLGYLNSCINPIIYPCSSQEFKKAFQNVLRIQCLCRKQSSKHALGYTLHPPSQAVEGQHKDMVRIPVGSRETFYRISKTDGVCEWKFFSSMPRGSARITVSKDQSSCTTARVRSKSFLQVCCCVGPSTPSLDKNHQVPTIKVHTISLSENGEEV
From the text: (§3) Other receptors: Cell membranes expressing human dopamine D1, D2, D4 and rat D3 receptors were purchased through BioSignal, Inc. (Montreal, Canada). Binding assays using the histamine H1 receptor; dopamine receptors; and α1A, α1E, and α2 adrenergic receptors may be carried out according to the procedures described in U.S. Patent No. 5,780,485, the disclosure of which is hereby incorporated by reference in its entirety into this application. Binding assays using the dopamine D5 receptor may be carried out according to the procedures described in U.S. Patent No. 5,882,855, the disclosure of which is hereby incorporated by reference in its entirety into this application. Binding assays for the human α1D adrenergic receptor may be carried out according to the procedures described in U.S. Patent No. 6,156,518, the disclosure of which is hereby incorporated by reference in its entirety into this application.
as §2

[5] = biological target: T5, human dopamine D4 (Homo sapiens, UniProt P21917); experiment: Radioligand binding, dopamine D4 receptor
T5 construct: purchased BioSignal, Inc. (Montreal, Canada)
T5 sequence (P21917 1-419): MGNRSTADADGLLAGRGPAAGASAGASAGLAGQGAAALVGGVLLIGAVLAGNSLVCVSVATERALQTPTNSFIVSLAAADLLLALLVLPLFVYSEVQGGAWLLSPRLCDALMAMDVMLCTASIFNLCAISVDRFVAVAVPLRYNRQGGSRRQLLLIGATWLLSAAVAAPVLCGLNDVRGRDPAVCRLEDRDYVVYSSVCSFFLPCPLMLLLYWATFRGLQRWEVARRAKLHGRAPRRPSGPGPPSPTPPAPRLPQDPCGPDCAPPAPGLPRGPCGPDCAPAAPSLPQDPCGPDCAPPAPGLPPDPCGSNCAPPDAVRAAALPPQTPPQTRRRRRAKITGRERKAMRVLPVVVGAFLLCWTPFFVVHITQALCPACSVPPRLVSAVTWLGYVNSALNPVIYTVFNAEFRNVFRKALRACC
From the text: as §3, §2

[6] = Table 8; Ki h5HT1D divided by Ki hGAL3
[7] = Table 8; Ki h5HT1A divided by Ki hGAL3
[8] = Table 8; Ki h5HT1F divided by Ki hGAL3
[9] = Table 10; Ki hα1A divided by Ki hGAL3
[10] = Table 10; Ki hD4 divided by Ki hGAL3

T1 sequence (P28221 whole entry): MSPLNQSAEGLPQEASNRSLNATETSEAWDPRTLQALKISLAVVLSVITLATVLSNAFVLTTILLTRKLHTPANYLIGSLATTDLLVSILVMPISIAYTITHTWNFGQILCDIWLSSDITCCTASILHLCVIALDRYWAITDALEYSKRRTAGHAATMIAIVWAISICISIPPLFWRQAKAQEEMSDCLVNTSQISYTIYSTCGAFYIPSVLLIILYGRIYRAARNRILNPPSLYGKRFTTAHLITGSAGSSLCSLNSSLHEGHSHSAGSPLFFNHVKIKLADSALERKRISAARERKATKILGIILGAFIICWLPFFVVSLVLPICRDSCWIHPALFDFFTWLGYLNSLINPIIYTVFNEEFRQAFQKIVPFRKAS

Structure (SMILES)	Ki ([1]; Table 7; read-out: h5HT1D Ki)	selectivity ratio h5HT1D [1, 6]	Ki ([2]; Table 7; read-out: h5HT1A Ki)	selectivity ratio h5HT1A [2, 7]	Ki ([3]; Table 7; read-out: h5HT1F Ki)	selectivity ratio h5HT1F [3, 8]	Ki ([4]; Table 9; read-out: hα1A Ki)	selectivity ratio hα1A [4, 9]	Ki ([5]; Table 9; read-out: hD4 Ki)	selectivity ratio hD4 [5, 10]	Ki ([1]; read-out: h5HT1D Ki; Table 7)	Ki ([2]; read-out: h5HT1A Ki; Table 7)	Ki ([3]; read-out: h5HT1F Ki; Table 7)	Ki ([4]; read-out: hα1A Ki; Table 9)	Ki ([5]; read-out: hD4 Ki; Table 9)
CN(CCc1c[nH]c2ccccc12)c1nc(Nc2ccc(F)c(F)c2)cc(N2CCCCC2)n1 [Example 15]	1.27 µM	17	5.1 µM	>30	4.19 µM	>30	3.39 µM	46	13.2 µM	>30					
O=C1C(=Nc2ccc(Cl)cc2)c2ccccc2N1c1ccccc1 [Example 97, 3-[(4-CHLOROPHENYL)IMINO]-1-PHENYL-1,3-DIHYDRO-2H-INDOL-2-ONE]	14.2 µM	>100	> 50 µM	>100	4.16 µM	>30	16.9 µM	>100	> 50 µM	>100					
O=C1C(=Nc2ccc(Br)cc2)c2ccccc2N1c1ccccc1 [Example 98, 3-[(4-BROMOPHENYL)IMINO]-1-PHENYL-1,3-DIHYDRO-2H-INDOL-2-ONE]	9.12 µM	>100	24.6 µM	>100	3.36 µM	>30	14.5 µM	>100	> 50 µM	>100					
Cc1ccc(Nc2cc(N3CCCCC3)nc(N(C)CCc3c[nH]c4ccccc34)n2)cc1 [Example 11]	0.102 µM	1	4.68 µM	>30	1.78 µM	20	0.926 µM	10	4.83 µM	>30					
Cc1ccc(Nc2cc(N3CCCCC3)nc(N3CCN(c4ncccc4C(F)(F)F)CC3)n2)cc1 [Example 34]	2.98 µM	>100		>100	4.8 µM	>100	3.76 µM	>100	18.7 µM	>100					
O=C1C(=Nc2ccc(C(F)(F)F)cc2)c2ccccc2N1c1ccccc1 [Example 95, 1-PHENYL-3-[[4-(TRIFLUOROMETHYL)PHENYL]IMINO]-1,3-DIHYDRO-2H-INDOL-2-ONE]	16 µM	>100	28.3 µM	>100	4.45 µM	>100	13.1 µM	>100	> 50 µM	>100					
COc1cccc(Nc2cc(N3CCCCC3)nc(N(C)CCc3c[nH]c4ccccc34)n2)c1 [Example 17]	1.03 µM	12	3.48 µM	>30	10.3 µM	>100	0.996 µM	11	22.2 µM	>100					
CN(C)c1cc(Nc2ccc(Cl)c(Cl)c2)nc(Nc2ccccc2)n1 [Example 60]	9.2 µM	>100	33.7 µM	>100	2.12 µM	25	13.6 µM	>100	48.8 µM	>100					
O=C1C(=Nc2cccc(C(F)(F)F)c2)c2ccccc2N1c1ccccc1 [Example 92, 1-PHENYL-3- [[3-(TRIFLUOROMETHYL)PHENYL]IMINO]-1,3-DIHYDRO-2H-INDOL-2-ONE]		>100		>100		>100				>100					
O=C1C(=Nc2cccc(Cl)c2)c2ccccc2N1c1ccccc1 [Example 94, 3-[(3-CHLOROPHENYL)IMINO]-1-PHENYL-1,3-DIHYDRO-2H-INDOL-2-ONE]	10.8 µM	>100	> 50 µM	>100	5.68 µM	>100	12.7 µM	>100	> 50 µM	>100					
Cc1ccc(Nc2cc(N3CCCCC3)nc(N(C)CCc3ccccc3)n2)cc1 [Example 22]	1.85 µM	>30	9.71 µM	>100	5.77 µM	>100	1.28 µM	>30	11.6 µM	>100					
COC[C@@H]1[C@@H](c2ccccc2)OCCN1c1nc(Nc2ccc(C)cc2)cc(N2CCCCC2)n1 [Example 49]		>30		>100		>30		>30		>100	16.9 µM	29.2 µM	8.89 µM	6.65 µM	45.8 µM
Cc1ccc(Nc2cc(N(C)C)nc(N(C)CCc3c[nH]c4ccccc34)n2)cc1 [Example 77]	0.716 µM	9	5.47 µM	>30	3.24 µM	>30	0.834 µM	11	0.504 µM	6					
